molecular target: T1, human CCR6 (Homo sapiens, UniProt P51684); assay: FLIPR assay (inhibition of CCL20-induced calcium signal); assay type: cell-based; conditions: FLIPR IC50 (nM), HEK-293 cells expressing human CCR6; mean values where determined several times
T1 construct: expressed in transfected cells; host or cells: HEK-293
T1 sequence (P51684 1-374): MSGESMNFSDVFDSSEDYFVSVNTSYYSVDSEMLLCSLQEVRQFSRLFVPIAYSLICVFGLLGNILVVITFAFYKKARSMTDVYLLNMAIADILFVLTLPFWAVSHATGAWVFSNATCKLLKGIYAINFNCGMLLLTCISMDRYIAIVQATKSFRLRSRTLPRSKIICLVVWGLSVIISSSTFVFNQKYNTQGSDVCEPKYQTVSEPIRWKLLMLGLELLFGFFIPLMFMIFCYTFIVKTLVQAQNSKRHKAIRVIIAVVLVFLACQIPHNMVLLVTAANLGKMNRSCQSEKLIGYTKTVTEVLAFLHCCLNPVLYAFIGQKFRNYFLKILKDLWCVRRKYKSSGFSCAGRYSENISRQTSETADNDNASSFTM
How it was run: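 Dye-loaded HEK-293 cells expressing human CCR6 were preincubated with compound for 30 min at room temperature in the dark, then challenged with 10 nM CCL20 (final). Fluorescence was tracked on FLIPR, and baseline-subtracted peak emission over base after agonist addition gave inhibition dose-response curves for IC50.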

SMILES	IC50
CC(C)c1ccc([C@](O)(c2cncc(N3C4CCC3CC4)c2)C2(C)CN(C)C2)cc1 [Example 177]	284 nM
CCc1ccc([C@](O)(c2cncc(N3CC4CC(C3)O4)c2)C2(C)CN(C)C2)cc1 [Example 243]	211 nM

same assay, conditions: HEK-293 cells expressing human CCR6; mean values where determined several times; read-out: FLIPR IC50

SMILES	IC50
CC(C)c1ccc([C@](O)(c2cncc(N3CC[C@H](CO)C3)c2)C2(C)CN(C)C2)cc1 [Example 170]	133 nM
CC(C)c1ccc([C@](O)(c2cncc(N3CCC(O)(C4CC4)C3)c2)C2(C)CN(C)C2)cc1 (stereo partly shown) [Example 173]	77.9 nM
CC(C)c1ccc([C@](O)(c2cncc(N3CCCCC3)c2)C2(C)CN(C)C2)cc1 [Example 176]	39.2 nM
CC(C)c1ccc([C@](O)(c2cncc(N3CCC[C@@H]3C)c2)C2(C)CN(C)C2)cc1 [Example 178]	47.5 nM
CC(C)c1ccc([C@](O)(c2cncc(N3CCC(O)(C(F)(F)F)C3)c2)C2(C)CN(C)C2)cc1 (stereo partly shown) [Example 179]	64.5 nM
CC(C)c1ccc([C@](O)(c2cncc(N3CCC(F)(F)C3)c2)C2(C)CN(C)C2)cc1 [Example 180]	55.7 nM
CC(C)c1ccc([C@](O)(c2cncc(N3CCC(O)CC3)c2)C2(C)CN(C)C2)cc1 [Example 181]	295 nM
CC(C)c1ccc([C@](O)(c2cncc(N3CCCC(O)C3)c2)C2(C)CN(C)C2)cc1 (stereo partly shown) [Example 182]	86.5 nM
CC(C)c1ccc([C@](O)(c2cncc(N(C)CCOCc3ccccc3)c2)C2(C)CN(C)C2)cc1 [Example 183]	31.7 nM
CN1CC(C)([C@](O)(c2ccc(C3(C)CC3)cc2)c2cncc(N3CCCC3)c2)C1 [Example 184]	16.5 nM
CN1CC(C)([C@](O)(c2ccc(C3(C(F)(F)F)CC3)cc2)c2cncc(N3C[C@@H](F)[C@@H](F)C3)c2)C1 [Example 185]	27.9 nM
CN1CC(C)([C@](O)(c2ccc(C3(C(F)(F)F)CC3)cc2)c2cncc(N3CC[C@H](C(C)(C)O)C3)c2)C1 [Example 186]	43.5 nM
CN1CC(C)([C@](O)(c2ccc(C3(C(F)(F)F)CC3)cc2)c2cncc(N3CCCC3)c2)C1 [Example 187]	15.8 nM
CN1CC(C)([C@](O)(c2ccc(C(C)(C)C)cc2)c2cncc(N3CCCCC3)c2)C1 [Example 188]	23.4 nM
CC(C)c1ccc([C@](O)(c2cncc(-c3noc(C4CCN(S(=O)(=O)C5CC5)CC4)n3)c2)C2(C)CN(C)C2)cc1 [Example 190, (R)-{5-[5-(1-Cyclopropanesulfonyl-piperidin-4-yl)-[1,2,4]oxadiazol-3-yl]-pyridin-3-yl}-(1,3-dimethyl-azetidin-3-yl)-(4-isopropyl-phenyl)-methanol]	38 nM
CC(C)c1ccc([C@](O)(c2cncc(N(C)CCO)c2)C2(C)CN(C)C2)cc1 [Example 191, 2-({5-[(R)-(1,3-Dimethyl-azetidin-3-yl)-hydroxy-(4-isopropyl-phenyl)-methyl]-pyridin-3-yl}-methyl-amino)-ethanol]	317 nM
CC(C)c1ccc([C@](O)(c2cncc(N3CC(c4ccccc4)OC3=O)c2)C2(C)CN(C)C2)cc1 (stereo partly shown) [Example 194]	20.5 nM
CC(C)c1ccc([C@](O)(c2cncc(N3CC(Cc4ccccc4)OC3=O)c2)C2(C)CN(C)C2)cc1 (stereo partly shown) [Example 195]	29.3 nM
CC(C)c1ccc([C@](O)(c2cncc(N3CC(C(C)C)OC3=O)c2)C2(C)CN(C)C2)cc1 (stereo partly shown) [Example 196]	67.6 nM
CC(C)c1ccc([C@](O)(c2cncc(N3CC4(CC4)OC3=O)c2)C2(C)CN(C)C2)cc1 [Example 197]	106 nM

SMILES	IC50
CC(C)c1ccc([C@](O)(c2cncc(N3CC4(CCCC4)OC3=O)c2)C2(C)CN(C)C2)cc1 [Example 198]	70.8 nM
CC(C)c1ccc([C@](O)(c2cncc(N3CC(C4CCOCC4)OC3=O)c2)C2(C)CN(C)C2)cc1 (stereo partly shown) [Example 199]	487 nM
CC(C)c1ccc([C@](O)(c2cncc(N3CC(C)(C)OC3=O)c2)C2(C)CN(C)C2)cc1 [Example 200]	407 nM
CC(C)c1ccc([C@](O)(c2cncc(N3CC4(CCC(F)(F)CC4)OC3=O)c2)C2(C)CN(C)C2)cc1 [Example 201]	159 nM
CC(C)c1ccc([C@](O)(c2cncc(N3CC4(CC5(CCC5)C4)OC3=O)c2)C2(C)CN(C)C2)cc1 [Example 202]	29.9 nM
CC(C)c1ccc([C@](O)(c2cncc(N3CC4(CC(C5CC5)C4)OC3=O)c2)C2(C)CN(C)C2)cc1 (stereo partly shown) [Example 203]	64.9 nM
CC(C)c1ccc([C@](O)(c2cncc(N3CC4(CC(C)(C)C4)OC3=O)c2)C2(C)CN(C)C2)cc1 [Example 204]	48.2 nM
CC(C)c1ccc([C@](O)(c2cncc(N3CC(c4ccccc4)CC3=O)c2)C2(C)CN(C)C2)cc1 (stereo partly shown) [Example 205]	26.9 nM
CC(C)c1ccc([C@](O)(c2cncc(N3CCC(C(C)C)C3=O)c2)C2(C)CN(C)C2)cc1 (stereo partly shown) [Example 208]	38.4 nM
CC(C)c1ccc([C@](O)(c2cncc(N3CC(C)(C)CC3=O)c2)C2(C)CN(C)C2)cc1 [Example 209]	205 nM
CC(C)c1ccc([C@](O)(c2cncc(N3CC4(CCCC4)CC3=O)c2)C2(C)CN(C)C2)cc1 [Example 211]	50.1 nM
CC(C)c1ccc([C@](O)(c2cncc(N3CCC4(CCC4)C3=O)c2)C2(C)CN(C)C2)cc1 [Example 212]	70.8 nM
CC(C)c1ccc([C@](O)(c2cncc(N3CC4(CCOCC4)CC3=O)c2)C2(C)CN(C)C2)cc1 [Example 213]	459 nM
CC(C)c1ccc([C@](O)(c2cncc(N3CCC(C4CCOCC4)C3=O)c2)C2(C)CN(C)C2)cc1 (stereo partly shown) [Example 214]	184 nM
CC(C)c1ccc([C@](O)(c2cncc(N3CCC4(CCCCC4)C3=O)c2)C2(C)CN(C)C2)cc1 [Example 215]	50.9 nM
CC(C)c1ccc([C@](O)(c2cncc(N3CCC4(CCOCC4)C3=O)c2)C2(C)CN(C)C2)cc1 [Example 216]	476 nM
CC(C)C[C@H]1CC(=O)N(c2cncc([C@@](O)(c3ccc(C(C)C)cc3)C3(C)CN(C)C3)c2)C1 [Example 217]	43.3 nM
CC(C)c1ccc([C@](O)(c2cncc(N3CC(C4CC4)CC3=O)c2)C2(C)CN(C)C2)cc1 (stereo partly shown) [Example 218]	60.4 nM
CC(C)c1ccc([C@](O)(c2cncc(N3CC(C(F)(F)F)CC3=O)c2)C2(C)CN(C)C2)cc1 (stereo partly shown) [Example 219]	135 nM
COCCC1CCN(c2cncc([C@@](O)(c3ccc(C(C)C)cc3)C3(C)CN(C)C3)c2)C1=O (stereo partly shown) [Example 220]	214 nM

SMILES	IC50
COCCC1CC(=O)N(c2cncc([C@@](O)(c3ccc(C(C)C)cc3)C3(C)CN(C)C3)c2)C1 (stereo partly shown) [Example 221]	350 nM
CC(C)c1ccc([C@](O)(c2cnnc(N3CCCC3=O)c2)C2(C)CN(C)C2)cc1 [Example 222, 1-{5-[(R)-(1,3-Dimethyl-azetidin-3-yl)-hydroxy-(4-isopropyl-phenyl)-methyl]-pyridazin-3-yl}-pyrrolidin-2-one]	164 nM
CC(C)c1ccc(C(O)(c2cncc(N3CC[C@H](C(C)C)C3)c2)C2(C)CN(C)C2)cc1 (stereo partly drawn) [Example 223, (1,3-Dimethyl-azetidin-3-yl)-(4-isopropyl-phenyl)-[5-((R)-3-isopropyl-pyrrolidin-1-yl)-pyridin-3-yl]-methanol]	29 nM
CC(C)c1ccc([C@](O)(c2cncc(N3C[C@@H](C)O[C@@H](C)C3)c2)C2(C)CN(C)C2)cc1 [Example 224]	48.5 nM
CC(C)c1ccc([C@](O)(c2cncc(N3C[C@H](C)O[C@@H](C)C3)c2)C2(C)CN(C)C2)cc1 [Example 228]	44.6 nM
CC(C)c1ccc([C@](O)(c2cncc(N3C[C@@H](C)O[C@H](C)C3)c2)C2(C)CN(C)C2)cc1 [Example 229]	59.1 nM
Cc1noc(C2CCN(c3cncc([C@@](O)(c4ccc(C(C)C)cc4)C4(C)CN(C)C4)c3)C2)n1 (stereo partly shown) [Example 230]	36.7 nM
Cc1csc(C2CCN(c3cncc([C@@](O)(c4ccc(C(C)C)cc4)C4(C)CN(C)C4)c3)C2)n1 (stereo partly shown) [Example 231]	14.9 nM
CC(C)c1ccc([C@](O)(c2cncc(N3CCC(c4ccccc4)C3)c2)C2(C)CN(C)C2)cc1 (stereo partly shown) [Example 232]	46.7 nM
CC(C)c1ccc([C@](O)(c2cncc(N3CCC(C)(C)C3)c2)C2(C)CN(C)C2)cc1 [Example 233]	29.7 nM
CC(C)c1ccc([C@](O)(c2cncc(N3C[C@@H]4C[C@H]3CO4)c2)C2(C)CN(C)C2)cc1 [Example 234]	123 nM
CC(C)c1ccc([C@](O)(c2cncc(N3CC(F)(F)OC(F)(F)C3)c2)C2(C)CN(C)C2)cc1 [Example 235]	23.4 nM
COC[C@H]1CN(c2cncc([C@@](O)(c3ccc(C(C)C)cc3)C3(C)CN(C)C3)c2)CCO1 [Example 236]	210 nM
COC[C@@H]1CN(c2cncc([C@@](O)(c3ccc(C(C)C)cc3)C3(C)CN(C)C3)c2)CCO1 [Example 237]	217 nM
CC(C)c1ccc([C@](O)(c2cncc(N3CCC(C(F)(F)F)C3)c2)C2(C)CN(C)C2)cc1 (stereo partly shown) [Example 238]	22.4 nM
CC(C)c1ccc([C@](O)(c2cncc(N3C[C@H]4C[C@@H]3CO4)c2)C2(C)CN(C)C2)cc1 [Example 239]	283 nM
CC(C)c1ccc([C@](O)(c2cncc(N3C[C@H]4CC[C@@H](C3)O4)c2)C2(C)CN(C)C2)cc1 [Example 240]	82.9 nM
CN1CC(C)([C@](O)(c2ccc(C3(C(F)(F)F)CC3)cc2)c2cncc(N3C[C@@H]4C[C@H]3CO4)c2)C1 [Example 241]	128 nM
CCc1ccc([C@](O)(c2cncc(N3CCCC3)c2)C2(C)CN(C)C2)cc1 [Example 242]	22.1 nM

From patent US12617773B2, “Azetidin-3-ylmethanol derivatives as CCR6 receptor modulators” (Idorsia Pharmaceuticals Ltd, priority 2020, dated 2026)
